We go through six compounds from EP0123485A1, “Colon-specific prodrug, the preparation and uses thereof” (priority 1983, dated 1984).

Data set [1] is described as follows: Recovery of steroid glycoside and free steroid from intestinal contents and tissues after intragastric administration. The data set is classed as in vivo, Sprague-Dawley rats. The note with it: for Recovery from the cecum / Recovery from the small intestine: average of 4 animals; for site of absorption of the free steroid: free steroid given orally (control experiments, FIGURE 4). As to the method:
Male, Sprague-Dawley rats (ca 250 g) were maintained on laboratory rat chow and water ad lib. These rats were fasted overnight (16 hr.) prior to administration of glucoside or free steroid. Water bottles were removed from the cages at least 30 min prior to drug administration. Prednisolone glucoside, 2, (7.5 mg) or dexamethasone glucoside, 1, (7.5 mg) was administered by gastric intubation as a solution (0.5 mL) of water/95% ethanol (3:1). Prednisolone, 4, (5.25 mg) or dexamethasone, 3, (5.1 mg) was administered as a solution (0.5 mL) of water/95% ethanol (1:1). After the appropriate interval of time -3, 4, 5 or 6 hr.- the animals were sacrificed by carbon dioxide anesthesia followed by thoractomy. The small intestine and cecum were removed and cut into segments. Contents were separated from the tissues by rinsing the segments with cold, 0.9% saline (5.0 mL). The contents were immediately diluted to 30 mL with methanol. The tissues were suspended in 0.01 M KH2P04 (5.0 mL). Then an internal standard, either prednisolone, 4, or dexamethasone, 3, depending on the experimental steroid, was added to all the samples. Both the contents and tissues were then homogenized with a Polytron Homogenizer (Brinkman Inst. Co.) at med. speed for 1-2 min. The contents were then diluted to 40 mL total volume with methanol. The tissues were diluted to 25 mL total volume with methanol. All the samples were centrifuged (5,000 g, 15 min) and then the supernatant solutions were passed through membrane filters (0.45 micrometers, Versapor 800). The samples (1.4 mL) were then diluted with 0.01 M KH2PO4 (0.6 mL) and 20 microliters of the resulting solution injected directly onto the HPLC column for analysis.

Data set [2] in a line: Incubation with homogenized rat feces. The settings on record: 37 C, 0.01 M phosphate buffer pH 7.5. It counts as in vitro ADME. As to the method: Glucosides 1 and 2 (5.0 mg) were also incubated at 37 °C with homogenized rat feces (0.5 g/10 milliliters 0.01 M phosphate buffer, pH 7.5). The feces were obtained from rats maintained on a high cellulose diet. […] Aliquots (0.2 milliliters) were removed and quenched with MeOH (3.66 milliliters). After centrifugation (5,000g, 10 min), the samples were passed through membrane filters (0.45 micrometer pore, Versapor 450, Gelman Sciences, Inc.). They were then diluted (1:1) with 0.01 M KH2PO4. Twenty microliters of the resulting solution were injected directly onto the HPLC column for analysis.

Data set [3] is described as follows: KM(app) and Vmax determinations (Eadie-Hofstee plots). It counts as in vitro ADME, rat. The note with it: prodrug 0.5-48 micromolar, 0.8 mL cecal homogenate, 15 min, 37 C, release of free steroid by HPLC. As to the method:
KM(app) and VMax Determinations. The KM(app)-Vmax for the hydrolysis of p-NP-glc and p-NP-gal were determined using pooled cecal homogenates (200 mL) as described above. A range of substrate (56-1000 micromolar; final volume 2.25 mL) concentrations, spanning their apparent KM, was used for each reaction. The amount of cecal homogenate used was 0.04 mL. Velocities were obtained, in duplicate, at 37 °C in a shaking water bath and the reaction stopped by addition of 0.2 N NaOH (0.25 mL) after 15 min. Release of p-nitrophenol was measured spectrophotometrically at 403 nm. Eadie-Hofstee plots were used to determine the KM(app) (micromolar) and Vmax (micromolar/min/g) of both reactions. The wet weight (g), measured immediately after removal and pooling, was used throughout.
Again, cecal contents from four rats were pooled, weighed, diluted (100 mL, 0.01 M phosphate buffer, pH 7.0) and homogenized. A range of substrate concentrations (0.5-48 micromolar, final volume 2.5 mL) spanning the apparent KM, was used for each reaction. The amount of cecal homogenate used was 0.8 mL. Reactions were run, in duplicate, at 37°C in a shaking water bath. After 15 min, the reactions were stopped by removing aliquots (0.3 mL) and quenching them with MeOH (4.7 mL). […] Again, Eadie-Hofstee plots were used to determine the KM(app) and VMax.

Data set [4] can be described thus: Rate of hydrolysis in homogenized cecal contents. The note with it: for Sp. act. / Tot. act.: cecal contents, 1.0 mM prodrug, 37 C, release of free steroid by HPLC.
Excerpt: (§1) (The entire small intestine was divided into two, equal length segments to give PSI and DSI.) Gastrointestinal contents were obtained from male, Sprague-Dawley rats (300-400 g) which had been maintained on a stock diet (Purina rat chow) and water ad libitum. The intestinal contents of each section were pooled from four animals for each assay. […] Following removal, the contents were quickly weighed, then diluted to 100 milliliters (stomach, PSI, and DSI) or 200 milliliters (cecum) with cold 0.01 M phosphate buffer, pH 7.0. […] Homogenates were then stored on ice (ca 30 min). […] The reaction was run at 37 °C in a shaking water bath. The reaction was stopped after 10, 20, or 30 min by addition of 0.2 N NaOH (0.25 milliliters).
(§2) Stomach and PSI contents were diluted to 50 mL with 0.01 M phosphate buffer, pH 7.0, DSI contents to 25 mL, and cecal contents to 200 mL, prior to homogenization. The homogenates (2.1 mL of stomach, PSI, and DSI and 1.7 mL of cecum) were added to the appropriate substrate solution (0.01 M phosphate buffer, pH 7.0) to give 1.0 mM substrate in a total volume of 2.5 mL. At various times up to 30 min, aliquots (0.3 mL) were removed and quenched with MeOH (4.7 mL). After centrifugation (5,000 g, 10 min), the samples were diluted (1:1) with 0.01 M KH2PO4 and 20 microliters of the resulting solution was injected directly onto the HPLC column for analysis.
Data set [5] can be described thus: Rate of hydrolysis in homogenized stomach contents. The note with it: 1.0 mM prodrug, 37 C, release of free steroid by HPLC.
Data set [6] in a line: Rate of hydrolysis in homogenized distal small intestine contents. The note with it: for Sp. act. / Tot. act.: DSI contents, 1.0 mM prodrug, 37 C, release of free steroid by HPLC; for hydrolysis by DSI contents, comparison in words: homogenates of DSI contents.
Excerpt: as §1, §2
Data set [7] is described as follows: Rate of hydrolysis in homogenized proximal small intestine contents. The note with it: PSI contents; 1.0 mM prodrug, 37 C; release of free steroid by HPLC.
A short description of the next data set: physchem. The data set is classed as physicochemical. On the procedure:
The partitioning of prodrugs and free steroids between n-octanol and an aqueous phase (0.01 phosphate buffer, pH 7.0) were determined at 37 °C. Both octanol and buffer were saturated with the relevant aqueous or organic phase before use. […] The intitial concentration of steroid was 10 mM dissolved in the organic phase. The amount of glycoside and free steroid in the aqueous phase at equilibrium was measured spectrophotometrically at 239 nm for the dexamethasone and fludrocortisone compounds and 242 nm for the prednisolone and hydrocortisone compounds. The concentration of glycoside or free steroid in the octanol phase was determined by difference.

[8] abbreviates: 4 h after administration of 7.5 mg of glucoside 1.
Where [9] appears, read: 5 h after administration of 7.5 mg of glucoside 1.
The mark [10] stands for this setting: 6 h after administration of 7.5 mg of glucoside 1.
Setting [11] is: 0.01 m phosphate buffer, pH 7, Log P.

Like-named read-outs stand apart in the source and are kept apart here.

Consider `CC1CC2C3CCC4=CC(=O)C=CC4(C)C3(F)C(O)CC2(C)C1(O)C(=O)COC1OC(CO)C(O)C(O)C1O` [Compound 1, 9 alpha-Fluoro-11 beta, 17 alpha-dihydroxy-16 alpha-methyl-3, 20-dioxopregna-l, 4-dien-21-yl beta-D-glucopyranoside], for which the “Recovery from the cecum” value in data set [1] (3 h after administration of 7.5 mg of glucoside 1) worked out at 0.21 mg; in data set [1] (setting [8]), 0.02 mg; in data set [1] (setting [9]), 0.23 mg; in data set [1] (setting [10]) it was 0.04 mg. For the same compound, the “Recovery from the small intestine” value was determined as 5.61 mg^a in data set [1] (3 h after intragastric administration of 7.5 mg of glucoside 1), 5.00 mg in data set [1] (setting [8]), 0.24 mg in data set [1] (setting [9]) and 0.94 mg in data set [1] (setting [10]). The recovery at 4 h was around 60% in data set [1] (in vivo, po, rat, 7.5 mg glucoside intragastric, estimated from unhydrolyzed glucoside in lower small intestine at 4 h, read-out: part of an oral dose of glucoside that reached (was delivered to) the cecum) and 59% in data set [1] (rat, in vivo, po, 7.5 mg, 4 h after 7.5 mg glucoside, rat, read-out: administered dose recovered from the lower small intestine contents unhydrolyzed). Also, the “time to reach the colon” value in data set [1] (intragastric administration to rats) lay within 4 to 5 h. Further, in data set [1] (rat, 7.5 mg glucoside intragastric, estimated from unhydrolyzed glucoside in lower small intestine at 4 h, listed as glucoside 1), the “part of an oral dose of glucoside that reached (was delivered to) the cecum” value is “about half of the dose”. In addition, the recovery at 3 h in data set [1] (rat, in vivo, po, 3 h after oral administration, rat, read-out: dose recovered (intact) from the intestinal lumen) stood at 78%. For the same compound, the “animals in which the administered dose reached the cecum by the time of sacrifice” value in data set [1] (sixteen rats per glucoside, sacrifice at 3-6 h) is “eleven of the sixteen animals”. Moreover, in data set [2], the “hydrolysis on incubation with homogenized rat feces” value is reported as “extensive hydrolysis”. Moreover, the Km in data set [3] (listed as glucoside 1) came to 2.5 µM. Further, in data set [3] (listed as glucoside 1), the Vmax was 2.2 µM/min/g. The Sp. act. in data set [4] is recorded as 141 nmoles/min/g wet weight; in data set [5] it was 6.8 nmoles/min/g wet weight; in data set [6], 19.3 nmoles/min/g wet weight; in data set [6] (listed as glucoside 1), 19 nmoles/min/g wet weight; in data set [7] it was 11.0 nmoles/min/g wet weight. For the same compound, the Tot. act. was 3.5 µmol/min in data set [4], 0.12 µmol/min in data set [5], 0.34 µmol/min in data set [6] and 0.07 µmol/min in data set [7]. Also, the “hydrolysis by DSI contents, comparison in words” value in data set [6] is on record as “more resistant to hydrolysis than the other prodrugs”; in data set [6] (listed as glucoside 1) it was “about three times slower”.

For the compound `C[C@]12C=CC(=O)C=C1CC[C@@H]1[C@@H]2[C@@H](O)C[C@@]2(C)[C@H]1CC[C@]2(O)C(=O)CO` [Compound 4, 11 beta, 17 alpha-21-Trihydroxy-3, 20-dioxpregna-1,4-diene, reference compound], the “site of absorption of the free steroid” value is “absorbed almost completely from the small intestine” in data set [1] (rat) and “absorbed almost exclusively from the small intestine” in data set [1] (rat, listed as prednisolone). The “part of the oral dose of free steroid that reached the cecum” value in data set [1] (rat, in vivo, po) was “less than 1%”. In addition, the “free steroid recovered in the cecum, as equivalent of the administered dose” value in data set [1] (rat, in vivo, po, 5 h) is 11%. Besides, the logD at 0.5 h in “physchem” (n-octanol / 0.01 M phosphate buffer pH 7.0, 37 C, agitated 30 min, read-out: Log P) was determined as 1.55.

Turning to `C[C@]12CCC(=O)C=C1CC[C@@H]1[C@@H]2[C@@H](O)C[C@@]2(C)[C@H]1CC[C@]2(O)C(=O)CO` [Compound 6, 11 beta, 17 alpha-21-Trihydroxy-3, 20-dioxopregna-4-ene], the “Log P” value in the data set “physchem” (n-octanol / 0.01 M phosphate buffer pH 7.0, 37 C, agitated 30 min) is 1.54.

With `C[C@]12CCC(=O)C=C1CC[C@H]1[C@@H]3CC[C@](O)(C(=O)CO)[C@@]3(C)C[C@H](O)[C@@]12F` [Compound 8, 9 alpha-Fluoro-11 beta, 17 alpha-21-trihydroxy-3, 20-dioxopregna-4-ene], the logD at 0.5 h in “physchem” (setting [11]) came to 1.73.

In the case of `CC12CCC(=O)C=C1CCC1C2C(O)CC2(C)C1CCC2(O)C(=O)COC1OC(CO)C(O)C(O)C1O` [Compound 5, 11 beta, 17 alpha-Dihydroxy-3, 20-dioxopregna-4-en-21-yl beta-D-glucopyranoside], in data set [3] (listed as glucoside 5), the Km amounted to 5.7 µM. Also, the Vmax in data set [3] (listed as glucoside 5) is 2.6 µM/min/g. The “hydrolysis by cecal contents, comparison in words” value in data set [4] (cecal content homogenates) is recorded as “hydrolyzed more slowly than the other glucoside prodrugs”. Besides, the Sp. act. in data set [4] amounted to 30.5 nmoles/min/g wet weight; in data set [5] it was 5.5 nmoles/min/g wet weight; in data set [6], 39.2 nmoles/min/g wet weight; in data set [7], 15.9 nmoles/min/g wet weight. Besides, the Tot. act. in data set [4] stood at 0.76 µmol/min; in data set [5] it was 0.09 µmol/min; in data set [6] it was 0.70 µmol/min; in data set [7], 0.10 µmol/min.

For `CC12C=CC(=O)C=C1CCC1C2C(O)CC2(C)C1CCC2(O)C(=O)COC1OC(CO)C(OC2OC(CO)C(O)C(O)C2O)C(O)C1O` [Compound 13, 11 beta, 17 alpha-Dihydroxy-3, 20-dioxopregna-1,4-diene-21-yl beta-D-cellbioside], in the data set “physchem” (setting [11]), the logD at 0.5 h is -0.56. Further, the Sp. act. in data set [4] was found to be 109 nmoles/min/g wet weight; in data set [5] it was 7.5 nmoles/min/g wet weight; in data set [6], 32.5 nmoles/min/g wet weight; in data set [7], 26.0 nmoles/min/g wet weight. For the same compound, the Tot. act. in data set [4] worked out at 2.2 µmol/min; in data set [5], 0.01 µmol/min; in data set [6], 0.64 µmol/min; in data set [7], 0.11 µmol/min. For the same compound, in data set [6], the “hydrolysis by DSI contents, comparison in words” value is “only half that of glucoside 2 and one-fourth that of galactoside 10”.

The term Km denotes the concentration of substrate that gives half-maximal velocity. The term Vmax denotes the rate approached at saturating substrate. The Log P is the decadic logarithm of the partition coefficient of the neutral form, usually between octanol and water.
